From patent US20210300900A1, “OGA INHIBITOR COMPOUNDS” (Janssen Pharmaceutica NV, priority 2018, published 2021)

Biological target: T1, recombinant human Meningioma Expressed Antigen 5 (MGEA5), also referred to as O-GcNAcase (OGA) (Homo sapiens, UniProt O60502)
T1 construct: Full length OGA enzyme was purchased at OnGene (cat #TP322411); purchased OnGene (so in the source)
T1 sequence (O60502 1-916): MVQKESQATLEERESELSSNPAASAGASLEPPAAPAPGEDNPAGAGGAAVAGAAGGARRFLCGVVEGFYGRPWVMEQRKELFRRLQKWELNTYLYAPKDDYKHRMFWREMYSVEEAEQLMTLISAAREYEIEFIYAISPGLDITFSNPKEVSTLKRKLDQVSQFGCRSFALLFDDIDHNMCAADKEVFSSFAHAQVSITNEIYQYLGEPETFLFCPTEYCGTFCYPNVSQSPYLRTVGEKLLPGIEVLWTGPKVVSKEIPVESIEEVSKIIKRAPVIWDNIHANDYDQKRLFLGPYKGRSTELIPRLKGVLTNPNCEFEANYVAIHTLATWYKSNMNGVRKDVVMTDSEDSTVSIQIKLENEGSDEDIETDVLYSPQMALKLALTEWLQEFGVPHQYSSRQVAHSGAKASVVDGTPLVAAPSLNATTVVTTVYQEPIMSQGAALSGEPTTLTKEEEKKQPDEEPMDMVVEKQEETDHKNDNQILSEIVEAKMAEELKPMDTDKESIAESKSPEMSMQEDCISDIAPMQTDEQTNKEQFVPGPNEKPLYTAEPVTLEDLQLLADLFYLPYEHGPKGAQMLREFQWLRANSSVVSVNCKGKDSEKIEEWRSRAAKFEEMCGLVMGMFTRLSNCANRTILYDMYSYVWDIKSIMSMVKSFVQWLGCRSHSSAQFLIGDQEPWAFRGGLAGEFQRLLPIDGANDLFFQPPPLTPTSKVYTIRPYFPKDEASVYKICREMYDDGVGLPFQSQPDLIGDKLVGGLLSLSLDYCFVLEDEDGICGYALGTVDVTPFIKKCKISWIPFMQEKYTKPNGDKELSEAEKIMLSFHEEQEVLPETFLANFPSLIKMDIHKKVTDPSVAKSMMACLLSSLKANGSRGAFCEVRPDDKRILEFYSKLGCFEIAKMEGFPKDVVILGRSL
Assay: OGA biochemical assay (inhibition of FM-GlcNAc hydrolysis, fluorescence)
Conditions: FM-GlcNAc substrate; for Emax: read-out: Enzymatic Emax (%); for IC50: read-out: Enzymatic hOGA, pIC50 (converted)
From the text: The assay is based on the inhibition of the hydrolysis of fluorescein mono-β-D-N-Acetyl-Glucosamine (FM-GlcNAc) (Mariappa et al. 2015, Biochem J 470:255) by the recombinant human Meningioma Expressed Antigen 5 (MGEA5), also referred to as O-GcNAcase (OGA). The hydrolysis FM-GlcNAc (Marker Gene technologies, cat #M1485) results in the formation of B-D-N-glucosamineacetate and fluorescein. The fluorescence of the latter can be measured at excitation wavelength 485 nm and emission wavelength 538 nm. An increase in enzyme activity results in an increase in fluorescence signal. Full length OGA enzyme was purchased at OnGene (cat #TP322411). The enzyme was stored in 25 mM Tris.HCl, pH 7.3, 100 mM glycine, 10% glycerol at −20° C. Thiamet G and GlcNAcStatin were tested as reference compounds (Yuzwa et al. 2008 Nature Chemical Biology 4:483; Yuzwa et al. 2012 Nature Chemical Biology 8:393). The assay was performed in 200 mM Citrate/phosphate buffer supplemented with 0.005% Tween-20. 35.6 g Na2HPO4 2H2O (Sigma, #C0759) were dissolved in 1 L water to obtain a 200 mM solution. 19.2 g citric acid (Merck, #1.06580) was dissolved in 1 L water to obtain a 100 mM solution. pH of the sodiumphosphate solution was adjusted with the citric acid solution to 7.2. The buffer to stop the reaction consists of a 500 mM Carbonate buffer, pH 11.0. 734 mg FM-GlcNAc were dissolved in 5.48 mL DMSO to obtain a 250 mM solution and was stored at −20° C. OGA was used at a 2 nM concentration and FM-GlcNAc at a 100 uM final concentration. Dilutions were prepared in assay buffer.
50 nl of a compound dissolved in DMSO was dispensed on Black Proxiplate TM 384 Plus Assay plates (Perkin Elmer, #6008269) and 3 μl fl-OGA enzyme mix added subsequently. Plates were pre-incubated for 60 min at room temperature and then 2 μl FM-GlcNAc substrate mix added. […] Plates were briefly centrifuged for 1 min at 1000 rpm and incubate at room temperature for 6 h. To stop the reaction 5 μl STOP buffer were added and plates centrifuge again 1 min at 1000 rpm. Fluorescence was quantified in the Thermo Scientific Fluoroskan Ascent or the PerkinElmer EnVision with excitation wavelength 485 nm and emission wavelength 538 nm.
For analysis a best-fit curve is fitted by a minimum sum of squares method. From this an IC50 value and Hill coefficient was obtained. High control (no inhibitor) and low control (saturating concentrations of standard inhibitor) were used to define the minimum and maximum values.

Emax [%] | IC50 [nM] | Enzymatic Emax (%) (listed as 69) | Enzymatic Emax (%) | Enzymatic hOGA; pIC50 | Compound
29 | > 10000 |  |  |  | CNC(=O)c1nc(C(C)N2CC[C@@H](Cc3cc(C)nc(C)c3)C2)c[nH]1 (mixture of isomers) [Product 163]
 | 28.8 |  |  |  | CC(=O)Nc1cc(C(C)N2CCCC(CNc3cc(C)nc(C)c3)C2)[nH]n1 (stereo not shown) [Product 87]
97 | 302 |  |  |  | Cc1cc(C[C@H]2CCCN(C(C)c3nc(OC4CCC4)ccc3F)C2)cc(C)n1 (single isomer, unassigned) [Product 55]
84 | 2000 |  |  |  | CCOc1nc(C(C)N2CCC[C@H](Cc3cc(C)nc(C)c3)C2)cn1C (mixture of isomers) [Product 24]
 | 75.9 | 103 |  |  | COc1cc(C[C@H]2CCCN(C(C)c3nc(OC)ccc3F)C2)cc(C)n1 (stereo partly shown) [Product 69]
98 | 490 |  |  |  | CC(=O)Nc1nc(CN2CCC[C@H](Cc3cc(C)nc(C)c3)C2)c[nH]1 [Product 135]
92 | 955 |  |  |  | COc1ncc(C(C)N2CCC[C@H](Cc3cc(C)nc(C)c3)C2)cc1F (mixture of isomers) [Product 45]
95 | 575 |  |  |  | CCOc1cc(C(C)N2CCC[C@H](Cc3cc(C)nc(C)c3)C2)nn1C (mixture of isomers) [Product 18]
 | > 10000 |  |  |  | CC(=O)Nc1ncc(CN2CCC[C@H](Cc3cc(C)nc(C)c3)C2)n1C [Product 159]
81 | 2450 |  |  |  | CC(=O)Nc1cc(C(C)N2CCCC(Oc3cc(C)nc(C(F)(F)F)c3)C2)n[nH]1 (stereo not shown) [Product 138]
96 | 741 |  |  |  | COc1cccc(C(C)N2CCCC(c3cc(C)nc(C)c3)C2)n1 (stereo not shown) [Product 73]
74 | 3890 |  |  |  | COc1ccc(F)c(C(C)N2CC[C@H](Cc3ncc(C)nc3C)C2)n1 (stereo partly shown) [Product 113]
73.3 | 3980 |  |  |  | CCOc1cc(C(C)N2CC[C@H](Cc3cc(C)nc(C)c3)C2)n[nH]1 (mixture of isomers) [Product 139]
38 | > 10000 |  |  |  | COc1cncc(C[C@H]2CCN(C(C)c3cccc(OC)n3)C2)c1 (mixture of isomers) [Product 143]
59 | 7760 |  |  |  | COCc1cc(C(C)N2CC[C@@H](Cc3cc(C)nc(OC)c3)C2)nn1C (mixture of isomers) [Product 132]
 | 2820 |  | 82 |  | CC(=O)Nc1cc(C(C)N2CC[C@@H](Cc3cc(C)nc(C)c3)C2)n[nH]1 (stereo partly shown) [Product 104]
 |  |  | 36 | <5 | CC(=O)Nc1[nH]nc([C@@H](C)N2CCC[C@H](Cc3cc(C)nc(C)c3)C2)c1C [Product 12]
85 | 1660 |  |  |  | CNC(=O)c1cncc(C(C)N2CC[C@H](Cc3cc(C)nc(OC)c3)C2)c1 (mixture of isomers) [Product 103]
95 | 562 |  |  |  | COc1cc(C2CCCN(C(C)c3cc(NC(C)=O)[nH]n3)C2)cc(C)n1 (stereo not shown) [Product 75]
 |  |  | 72 | 5.24 | COc1cccc([C@@H](C)N2CCC[C@@H](CNc3cc(C)nc(C(F)(F)F)c3)C2)n1 [Product 94]
89 | 1050 |  |  |  | CC(=O)Nc1cc(CN2CCC[C@H](Cc3cc(C)nc(C)c3)C2)cs1 [Product 27]

Emax [%] | IC50 [nM] | Enzymatic Emax (%) (listed as 69) | Enzymatic Emax (%) | Enzymatic hOGA; pIC50 | Compound
60 | 7240 |  |  |  | COc1cccc(C(C)N2CC[C@H](Cc3ccnc(C(F)(F)F)c3)C2)n1 (mixture of isomers) [Product 127]
30.3 | > 10000 |  |  |  | COc1cccc(C[C@H]2CCN(C(C)c3cccc(OC)n3)C2)n1 (mixture of isomers) [Product 149]
75 | 4170 |  |  |  | CCOc1cc(C(C)N2CC[C@H](Cc3cc(C)nc(C(F)(F)F)c3)C2)n[nH]1 (mixture of isomers) [Product 120]
24 | > 10000 |  |  |  | Cc1cc(C[C@H]2CCCN(Cc3cnc(C4CC4)[nH]3)C2)cc(C)n1 [Product 165]
96 | 245 |  |  |  | CCOc1cc(C(C)N2CCC[C@H](Cc3cc(C)nc(C)c3)C2)n(C)n1 (mixture of isomers) [Product 17]
52 | > 10000 |  |  |  | CCOc1cc(CN2CCC[C@H](Cc3cc(C)nc(C)c3)C2)n(C)n1 [Product 161]
11.3 | > 10000 |  |  |  | COc1cccc(C(C)N2CC[C@H](Cc3ncccc3F)C2)n1 (mixture of isomers) [Product 148]
97 | 380 |  |  |  | COc1cc(C[C@@H]2CCN(C(C)c3cc(NC(C)=O)[nH]n3)C2)cc(C)n1 (mixture of isomers) [Product 131]
93 | 933 |  |  |  | COc1ncc(C(C)N2CCC[C@H](Cc3cc(C)nc(C)c3)C2)cn1 (mixture of isomers) [Product 65]
14.4 | > 10000 |  |  |  | COc1cccc(C(C)N2CC[C@H](Cc3cccc(C(F)(F)F)n3)C2)n1 (mixture of isomers) [Product 147]
 |  |  | 74 | 5.31 | COc1cccc([C@@H](C)N2CCC[C@H](CNc3cc(C)nc(C(F)(F)F)c3)C2)n1 [Product 92]
98 | 759 |  |  |  | CCOc1cnc(C(C)N2CC[C@@H](Cc3cc(C)nc(OC)c3)C2)o1 (mixture of isomers) [Product 133]
26 | > 10000 |  |  |  | CCOc1cc(C[C@@H]2CCN(C(C)c3c[nH]c(OCC)n3)C2)ccn1 (mixture of isomers) [Product 164]
86 | 1260 |  |  |  | COc1cc(C(C)N2CCC[C@H](Cc3cc(C)nc(C)c3)C2)on1 (mixture of isomers) [Product 29]
92 | 813 |  |  |  | CC(=O)Nc1cc(C(C)N2CC[C@H](Cc3ncc(C)nc3C)C2)n[nH]1 (stereo partly shown) [Product 110]
 |  |  | 7 | <5 | CC(=O)Nc1[nH]nc([C@H](C)N2CCC[C@H](Cc3cc(C)nc(C)c3)C2)c1C [Product 13]
99 | 282 |  |  |  | COc1cc(C(C)N2CCC[C@H](Cc3cc(C)nc(C)c3)C2)ccn1 (mixture of isomers) [Product 53]
30.5 | > 10000 |  |  |  | COc1cccc(C(C)N2CC[C@H](Cc3ccc(C(F)(F)F)nc3)C2)n1 (mixture of isomers) [Product 142]
94 | 575 |  |  |  | COc1cc(C[C@H]2CCN(C(C)c3cc(NC(C)=O)[nH]n3)C2)cc(C)n1 (mixture of isomers) [Product 128]
63 | 6610 |  |  |  | CCOc1nc(CN2CCC[C@H](Cc3cc(C)nc(C)c3)C2)c(Br)[nH]1 [Product 22]
24 | > 10000 |  |  |  | COc1ccc(C)c(CN2CCC[C@H](Cc3cc(C)nc(C)c3)C2)n1 [Product 160]
